From patent publication US20120136033A1, “Small Molecule Antagonists of Phosphatidylinositol-3,4,5-Triphosphate (PIP3) and Uses Thereof” (President and Fellows of Harvard College, priority 2009, published 2012)

How the values were obtained:
Btk PH domain = molecular target: T1, Btk PH domain (Homo sapiens, UniProt Q06187); assay: PH domain translocation assay, GFP-fused Btk PH domain; type: cell-based; settings: 100 μM, 2 hr, PDGF stimulation
T1 construct: Btk PH domain-GFP vector was purchased from Signagen Laboratories
T1 sequence (Q06187 3-133 limits assumed): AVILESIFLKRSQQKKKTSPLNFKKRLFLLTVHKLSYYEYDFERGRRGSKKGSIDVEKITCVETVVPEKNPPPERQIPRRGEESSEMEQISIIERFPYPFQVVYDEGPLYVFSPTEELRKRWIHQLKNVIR
Procedure: Cells were transfected with the corresponding GFP-fusion vectors, serum starved overnight, and incubated with 100 μM PITs or PIT-1is for 2 hr, followed by stimulation with 100 ng/ml PDGF or 250 ng/ml PMA for 5 min. The translocation was analyzed using fluorescent microscope and was quantitated by counting the number of cells with translocated PH domains in five random fields.
(§1) To begin characterizing cellular activity of PITs, a PH domain translocation assay was performed, measuring PIP3-induced association of GFP-fused PH domains with the plasma membrane. This method provides useful means for monitoring status of the PH domain/PIP3 binding in the intact cells. Varnai P et al. (1999) J Biol Chem 274:10983-9. Several PH-domain-containing proteins, which are known to bind PIP3 specifically and efficiently, were examined. […] Oikawa T et al. (2004) Nat Cell Biol 6:420-6.

U87MG cells = assay: cell death with pan-caspase inhibitor zVAD.fmk, Sytox assay; type: cell-based, human; settings: 100 μM zVAD.fmk, 24 hr
Procedure: FIG. 11 is a bar graph depicting that cell death triggered by PIT-1 alone or in combination with TRAIL is inhibited by pan-caspase inhibitor zVAD.fmk. U87MG cells were incubated with or without 100 μM zVAD.fmk together with PIT-1 (25, 50, 100 μM) in the presence or absence of 10 ng/ml TRAIL for 24 hr, and analyzed by Sytox cell death assay.
Based on the critical role of PIP3-dependent Akt signaling in the regulation of cell survival, the effect of PIT-1 on the cancer cell viability was tested. […] For the ATP assay, a luminescence-based commercial kit (CellTiter-Glo, Promega, Madison, Wis.) was used. Thirty microliters of cell lysis/ATP detection reagent was added to each well, mixed for 10 min at room temperature, and the luminescence was measured using a Wallac Victor 3 plate reader (Perkin-Elmer, Wellesley, Mass.). […] Twenty microliters of the combined MTS/PMS solution was added into each well, incubated for 4 hr at 37° C., and the absorbance at 490 nm was measured using a Wallac Victor 3 plate reader. For the Sytox cell death assay, measuring loss of plasma membrane integrity, cells were incubated with 1 μM Sytox Green reagent (Molecular Probes, Eugene, Oreg.) for 30 min at 37° C. and the fluorescence intensity was measured using Wallac Victor 3 plate reader with excitation at 485 nm and emission at 545 nm. […]

cells = assay: cell death under glucose/glutamine deprivation; type: cell-based
Excerpt: Elstrom R L et al. (2004) Cancer Res 64:3892-9.

VAV2 = molecular target: T2, VAV2 (Homo sapiens, UniProt P52735); assay: plasma membrane translocation assay, VAV2-GFP; type: cell-based; settings: PDGF stimulation
T2 construct: expressed in transfected cells; host or cells: SUM159
T2 sequence (P52735 whole entry, species assumed): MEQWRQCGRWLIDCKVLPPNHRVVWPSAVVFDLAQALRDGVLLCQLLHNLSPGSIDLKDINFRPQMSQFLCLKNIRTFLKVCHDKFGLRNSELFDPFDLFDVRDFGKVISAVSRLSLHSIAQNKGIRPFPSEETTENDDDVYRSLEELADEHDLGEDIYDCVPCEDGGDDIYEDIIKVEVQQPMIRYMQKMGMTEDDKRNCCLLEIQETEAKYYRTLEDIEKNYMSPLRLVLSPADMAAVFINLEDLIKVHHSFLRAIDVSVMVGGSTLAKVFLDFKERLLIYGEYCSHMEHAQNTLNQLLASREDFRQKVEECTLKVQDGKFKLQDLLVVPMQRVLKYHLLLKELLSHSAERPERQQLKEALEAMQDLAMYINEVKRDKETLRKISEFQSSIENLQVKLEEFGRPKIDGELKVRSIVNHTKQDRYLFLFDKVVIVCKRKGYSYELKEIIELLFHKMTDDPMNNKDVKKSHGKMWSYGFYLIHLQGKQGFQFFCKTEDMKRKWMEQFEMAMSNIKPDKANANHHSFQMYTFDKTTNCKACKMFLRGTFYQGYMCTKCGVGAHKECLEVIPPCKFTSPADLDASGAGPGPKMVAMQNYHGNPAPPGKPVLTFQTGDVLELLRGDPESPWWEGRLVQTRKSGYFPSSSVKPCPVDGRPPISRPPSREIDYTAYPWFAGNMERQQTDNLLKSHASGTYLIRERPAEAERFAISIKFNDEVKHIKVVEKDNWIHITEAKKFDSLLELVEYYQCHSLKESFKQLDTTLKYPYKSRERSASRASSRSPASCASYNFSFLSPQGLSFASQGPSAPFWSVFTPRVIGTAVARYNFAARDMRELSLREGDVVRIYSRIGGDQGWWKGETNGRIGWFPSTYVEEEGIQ
Procedure: as §1

[1] = molecular target: T3, Akt PH domain (PH123, 1-123 a.a. N-terminal fragment of human Akt1) (Homo sapiens, UniProt P31749); assay: fluorescence polarization (FP) PIP3/Akt PH domain binding assay; settings: 15 nM TMR-PIP3, 5 μM GST-PH domain of Akt, 30 min, read-out: IC50, disruption of PIP3/Akt PH domain binding
T3 construct: recombinant GST fusion proteins containing 1-123 a.a; N-terminal fragment of human Akt1 (PH 123); made in house; host or cells: E. coli BL21(DE3)
T3 sequence (P31749 1-123): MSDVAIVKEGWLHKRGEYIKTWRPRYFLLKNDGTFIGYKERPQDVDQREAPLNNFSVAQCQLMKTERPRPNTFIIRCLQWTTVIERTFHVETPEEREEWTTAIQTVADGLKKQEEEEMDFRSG
Procedure: 15 nM TMR-conjugated PIP3 were incubated with 5 μM GST-PH domain of Akt in the presence or absence of the indicated concentrations of PITs (0-200 μM) for 30 min, followed by FP measurement.
In order to identify compounds that disrupt the interaction between PIP3 and PH domains, a high-throughput fluorescence polarization (FP)-binding assay was developed using recombinant 1-123 amino acid N-terminal fragment of human Akt1 (also referred to herein simply as Akt), encompassing the PH domain (PH123 protein), and fluorescent NBD-labeled PIP3 molecule. […] Briefly, 5 μM recombinant GST fusion proteins containing 1-123 a.a. N-terminal fragment of human Akt1 (PH 123) or 100 nM 441-551 a.a. region of human PDK1 were incubated with 15 nM TMR-labeled PIP3, PIP2, or PIP5 in buffer containing 50 mM Tris-HCl (pH 7.5), 150 mM NaCl, and 5 mM b-ME for 15 min at room temperature in the dark. FP values were determined using Wallac Victor 3 plate reader. […] Incubations were carried out for 1 hr. For secondary assays, PIT compounds were added at various concentrations (6.25, 12.5, 25, 50, 100, 150 and 200 μM), followed by a 30 min incubation. The inhibition rates were calculated as: inhibition rate=[1−(compound-treated group/control group)]×100%, and IC50 value was determined using Origin6 software (MicroCal, LLC, Northampton, Mass.).

cancer cells = type: cell-based
[2] = test system: Bax/Bak double knockout mouse embryonic fibroblasts; assay: cell killing in Bax/Bak double knockout vs wild-type cells; type: cell-based
Procedure: Bax/Bak double knockout mouse embryonic fibroblasts (Wei M C et al. (2001) Science 292:727-30) and matched wild-type cells were a generous gift of Dr. Stanley Korsmeyer (Dana-Farber Cancer Center). B16-F10, U87MG, 4T1, A549, MDA-MB-231 and fibroblast cells were cultured in DMEM medium with 10% fetal bovine serum (FBS). SUM159 was maintained in Ham's F-12 medium with 5% FBS, 5 μg/ml insulin, and 1 μg/ml hydrocortisone. HUVEC cells were cultured in M199 medium with 20% FBS, 20 μg/ml ECGS, and 50 μg/ml heparin. All media were supplemented with 100 units/ml penicillin, 100 μg/ml streptomycin, and 2 mM glutamine. All cells were cultured in a humidified atmosphere of 95% air and 5% CO2 at 37° C.

WAVE2 = molecular target: T4, WAVE2 (Homo sapiens, UniProt Q9Y6W5); assay: plasma membrane translocation assay, WAVE2-GFP; type: cell-based
T4 construct: expressed in transfected cells; host or cells: SUM159
T4 sequence (Q9Y6W5 whole entry, species assumed): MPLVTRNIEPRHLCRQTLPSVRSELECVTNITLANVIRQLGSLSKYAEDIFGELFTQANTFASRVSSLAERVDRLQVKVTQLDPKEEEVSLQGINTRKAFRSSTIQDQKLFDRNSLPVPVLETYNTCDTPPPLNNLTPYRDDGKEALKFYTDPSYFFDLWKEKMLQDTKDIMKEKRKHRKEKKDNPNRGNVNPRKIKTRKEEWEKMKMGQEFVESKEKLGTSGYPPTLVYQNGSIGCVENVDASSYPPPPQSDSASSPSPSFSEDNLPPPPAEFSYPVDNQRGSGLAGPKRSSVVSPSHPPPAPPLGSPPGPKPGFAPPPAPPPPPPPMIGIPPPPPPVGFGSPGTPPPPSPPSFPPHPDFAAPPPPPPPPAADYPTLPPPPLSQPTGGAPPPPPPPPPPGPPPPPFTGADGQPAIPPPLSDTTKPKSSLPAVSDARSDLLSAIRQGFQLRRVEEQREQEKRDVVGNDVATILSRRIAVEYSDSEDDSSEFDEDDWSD
Procedure: as §1

[3] = solubility / precipitation; type: physicochemical
Excerpt: This method has been reported to be efficient for in vivo targeting of cancer cells by other poorly soluble anti-cancer drugs, such as m-porphyrin, tamoxifen, and taxol. Gao Z et al. (2003) J Drug Target 11:87-92; Torchilin V P et al. (2003) Proc Natl Acad Sci USA 100:6039-44.
The size of the DM-PIT-1-loaded micelles was about 15 nm with a narrow size distribution.

SUM159 cells = assay: actin polymerization and ruffling/lamellipodia formation in SUM159 cells; type: cell-based, human; settings: 25, 50, 100 μM PITs or 100 μM PIT-1is, 8 hr; PDGF 15 min
Procedure: In one set of experiments, the ability of PITs to inhibit actin polymerization and ruffling/lamellipodia formation was examined in SUM159 cells. Cells were serum starved and treated with PITs (25, 50 100 μM) or PIT-1is (100 μM) for 8 hr, followed by PDGF (100 ng/ml) stimulation for 15 min. Cells were fixed and stained with TRITC-phalloidin to visualize actin fibers, followed by fluorescent microscopy analysis. The number of cells with ruffles/lamellipodia was counted in five random fields.

| SMILES | inhibition of translocation of Btk PH domain to the plasma membrane (Btk PH domain) | cell death alone or with TRAIL in presence of zVAD.fmk (U87MG cells) | cell death in combination with glucose/glutamine deprivation (cells) | inhibition of translocation of VAV2 to the plasma membrane (VAV2) | IC50 [1] [µM] | cancer cell invasion through matrigel (cancer cells) | cytotoxic effects at the low concentrations used in migration and invasion experiments (cancer cells; P>0.05) | killing of Bax/Bak double knockout cells compared with wild-type cells [2] | plasma membrane translocation of WAVE2 (WAVE2) | aqueous solubility [3] | PDGF-induced membrane ruffling in SUM159 cells (SUM159 cells) |
| --- | --- | --- | --- | --- | --- | --- | --- | --- | --- | --- | --- |
| O=C(NC(=S)Nc1cc([N+](=O)[O-])cc(Cl)c1O)c1ccccc1 [PIT-1] | significantly inhibited | inhibited by a pan-caspase inhibitor zVAD.fmk | dramatic induction of cell death | significantly inhibited | 28.1 | efficiently suppressed | no significant cytotoxic effects | reduced in Bax/Bak double knockout cells | suppressed the plasma membrane translocation | limited aqueous solubility | efficiently inhibited |
| O=C1NC(=S)S/C1=C\c1cc(O)c([N+](=O)[O-])cc1Cc1ccccc1 [PIT-2] | significantly inhibited | inhibited by a pan-caspase inhibitor zVAD.fmk | dramatic induction of cell death | significantly inhibited | 31.5 | efficiently suppressed |  | reduced in Bax/Bak double knockout cells | suppressed the plasma membrane translocation | limited aqueous solubility | efficiently inhibited |
